Results as given in PubChem BioAssay AID2305 (GlaxoSmithKline (GSK), 2010).

Tested on: P. falciparum 3D7 growth, pLDH absorbance
Assay: P. falciparum 3D7 growth inhibition, dose response, strain 3D7 (AID 2305)

With COc1cc2nc(N3CCC(CNC(=O)/C=C/c4cccc(C)c4)CC3)nc(N)c2cc1OC as the molecule, how does the IC50 read?
Its IC50 is 680 nM.

How did the IC50 turn out when Fc1ccc2nc(-c3cccc(-c4ccc(CN5CCN(c6ccncc6)CC5)cc4)c3)[nH]c2c1 was run?
The IC50 was 210 nM.

How did the IC50 turn out when COc1cccc(C(=O)NCCc2cccc(Cl)c2)c1OCc1ccccc1 was run?
Its IC50 is 1260 nM.

How did the IC50 turn out when COc1ccc(-c2cccc(CNC3CCN(C)CC3)c2)cc1S(=O)(=O)NCc1ccccc1 was run?
Its IC50 is 870 nM.

How did the IC50 turn out when Cc1cccc2[nH]c(-c3cccc(-c4cccc(CN5CCN(c6ccncc6)CC5)c4)c3)nc12 was run?
The IC50 was 200 nM.

For FC(F)(F)c1ccc(-c2cncc(-c3ccc(C(F)(F)F)cc3)n2)cc1, which IC50 is on record?
The IC50 was 760 nM.

For COc1ccc(Nc2nccc(N3CCC(NC(=O)C(C)c4ccc(Cl)cc4)C3)n2)cc1 (centres undefined), which IC50 is on record?
Its IC50 is 1010 nM.

For NC(=NCCCCCCN=C(N)/N=C(\N)c1ccc(Cl)cc1)/N=C(\N)c1ccc(Cl)cc1, which IC50 is on record?
Its IC50 is 210 nM.

How did the IC50 turn out when COc1ccc2ccc(F)c(CCN3CCC(NCc4cc5c(cn4)OCCO5)CC3)c2n1 was run?
Its IC50 is 840 nM.

CCC1(CC)N=C(N)N=C(N)N1OCc1ccc(Cl)c(Cl)c1 was tested. Which IC50 did it give?
The IC50 was 60 nM.

For Cc1cccc2[nH]c(-c3ccc(-c4ccc(CNCC(C)C)cc4)cc3)nc12, which IC50 is on record?
Its IC50 is 410 nM.

For N#Cc1cccc(C(=O)Nc2cccc(-c3cccc(CN4CCNCC4)c3)c2)c1, which IC50 is on record?
The IC50 was 950 nM.

NS(=O)(=O)c1cccc(Nc2nc(N[C@@H]3CCNC3)nc3cc[nH]c(=O)c23)c1 was tested. Which IC50 did it give?
The IC50 was 940 nM.

CCN(CC)c1ccc(C(=O)Cn2ccc(=N)cc2)cc1 was tested. Which IC50 did it give?
The IC50 was 1000 nM.

For Cc1cc(NC(=O)[C@H](CC2CCCCC2)Nc2ccc(C#N)c3ccccc23)ccc1F, which IC50 is on record?
The IC50 was 680 nM.

CCNc1cc(C(=O)N[C@@H](Cc2ccoc2)[C@H](O)CNC(C)CCCC(C)C)cc(N2CCCCS2(=O)=O)c1 (some centres undefined) was tested. Which IC50 did it give?
The IC50 was 620 nM.

Which IC50 does the source give for COc1ccc(CCc2ccc(-c3c(C)[nH]c(C)c(Cl)c3=O)cc2)cc1OC here?
The IC50 was 90 nM.

Cc1ccc2c(NN=Cc3cccc(F)c3)cc(C)nc2c1 was tested. Which IC50 did it give?
Its IC50 is 860 nM.

With CCCN1CCN(c2ccccc2NS(=O)(=O)c2ccc(C(=O)Nc3ccc(Cl)cc3)cc2)CC1 as the molecule, how does the IC50 read?
Its IC50 is 1140 nM.

O=C(Nc1ccc2c(c1)CN(Cc1ccc(N3CCCC3)o1)CCC2)c1ccoc1 was tested. Which IC50 did it give?
Its IC50 is 950 nM.

With COc1ccc(NC(=O)[C@H](CC(C)C)Nc2cc(C)nc(NCCc3ccccc3OC)n2)cc1 as the molecule, how does the IC50 read?
The IC50 was 990 nM.

With CS(=O)(=O)Nc1ccc2[nH]cc(C3C[C@H]4CC[C@@H](C3)N4CC3CCC(NC(=O)/C=C/c4ccc(Cl)c(Cl)c4)CC3)c2c1 (some centres undefined) as the molecule, how does the IC50 read?
Its IC50 is 870 nM.

With Cc1ccc(-c2nnc(Nc3ccc(CC(N)=O)cc3)c3ccccc23)cc1S(=O)(=O)NCC1CCCO1 (centres undefined) as the molecule, how does the IC50 read?
The IC50 was 790 nM.

For Cc1cc(NCCC(=O)Nc2ccccc2)nc(NCCOc2ccccc2)n1, which IC50 is on record?
The IC50 was 1140 nM.

How did the IC50 turn out when CCCCC(=O)Nc1nonc1-c1ccc(OCC)c(OCC)c1 was run?
The IC50 was 910 nM.

Which IC50 does the source give for CC[C@H]1CN2CC[C@@H]1C[C@H]2[C@H](O)c1ccnc2ccc(Cl)cc12 here?
Its IC50 is 120 nM.

Which IC50 does the source give for O=C(Nc1cccc(-c2cccc(-c3nc4ccccc4[nH]3)c2)c1)Nc1ccc2c(c1)OCO2 here?
Its IC50 is 170 nM.

How did the IC50 turn out when OC(CNCCc1ccccc1)Cn1c2ccc(Cl)cc2c2cc(Cl)ccc21 (centres undefined) was run?
Its IC50 is 730 nM.

How did the IC50 turn out when CC(C)c1ccc(-c2nc3ncc(Cl)cc3[nH]2)cc1 was run?
Its IC50 is 860 nM.

How did the IC50 turn out when O=C(NCCCCCN1CCC(c2c[nH]c3ccccc23)CC1)Nc1cccc(Br)c1 was run?
The IC50 was 1110 nM.

For O=C(/C=C/c1ccc(-c2nc3ccc(Cl)cc3[nH]2)cc1)NC1CCN(Cc2ccccc2)CC1, which IC50 is on record?
The IC50 was 610 nM.

How did the IC50 turn out when NCc1ccc(CNCc2cccc(-c3cccc(-c4nc5ccc(F)cc5[nH]4)c3)c2)cc1 was run?
The IC50 was 310 nM.

With O=C(Nc1cccc(C(F)(F)F)c1)c1ccc(S(=O)(=O)NCC2CCCN(CC3CCCCC3)C2)cc1 (centres undefined) as the molecule, how does the IC50 read?
The IC50 was 900 nM.

With Cc1onc(-c2ccccc2)c1-c1nc(NCc2ccccc2Cl)no1 as the molecule, how does the IC50 read?
Its IC50 is 700 nM.

For O=C(c1ccc(-c2cccc(-c3nc4ccc(C(F)(F)F)cc4[nH]3)c2)cc1)N1CCCCC1CN1CCC(O)C1 (centres undefined), which IC50 is on record?
Its IC50 is 650 nM.

Which IC50 does the source give for O=C(/C=C/c1ccc(Cl)c(Cl)c1)NCCCCCN1CCC(NC(=O)Nc2ccc(F)c(Cl)c2)CC1 here?
Its IC50 is 620 nM.

For CCCNC(=O)C1Cc2c([nH]c3ccc(Br)cc23)C2(CCN(CCc3ccccc3)CC2)N1 (centres undefined), which IC50 is on record?
The IC50 was 680 nM.

Which IC50 does the source give for CCN(CC)CCCC(C)Nc1ccnc2cc(C#N)ccc12 (centres undefined) here?
The IC50 was 140 nM.

Cc1ccc(N2C(=O)C3C(C2=O)[C@]2(c4ccccc4)C(=O)[C@@]3(c3ccccc3)C(c3ccccc3)=C2c2ccccc2)c(C)c1 (some centres undefined) was tested. Which IC50 did it give?
The IC50 was 530 nM.
